Data from PubChem BioAssay (NCI).
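Growth conditions: 96-well plates. Treatment: test compound, 48 hours, 5 concentrations. Analysis: linear interpolation between bracketing concentrations; unreached endpoints set to highest concentration. TGI denotes the concentration required for complete inhibition of growth.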

Legend:
Test in all cases: DTP human tumour cell line panel, 48 h
[1] = test system: SK-OV-3 ovarian
[2] = test system: UACC-62 melanoma
[3] = test system: NCI-H460 lung
[4] = test system: DLD-1 colon
[5] = test system: SK-MEL-28 melanoma
[6] = test system: NCI-H23 lung
[7] = test system: SK-MEL-2 melanoma
[8] = test system: K-562 leukemia
[9] = test system: XF 498 CNS
[10] = test system: M19-MEL melanoma
[11] = test system: HOP-62 NSCLC
[12] = test system: NCI-H226 lung
[13] = test system: HOP-18 NSCLC
[14] = test system: SW-620 colon
[15] = test system: HCT-15 colon
[16] = test system: 786-0 renal
[17] = test system: MALME-3M melanoma
[18] = test system: HCT-116 colon
[19] = test system: SNB-75 CNS
[20] = test system: A498 renal
[21] = test system: M14 melanoma
[22] = test system: OVCAR-4 ovarian
[23] = test system: NCI-H522 lung
[24] = test system: SN12C renal
[25] = test system: UACC-257 melanoma
[26] = test system: SK-MEL-5 melanoma
[27] = test system: DMS 114 small cell lung
[28] = test system: OVCAR-5 ovarian
[29] = test system: SF-539 CNS
[30] = test system: SF-268 CNS
[31] = test system: KM12 colon
[32] = test system: A549 NSCLC
[33] = test system: DMS 273 small cell lung
[34] = test system: RXF-631 renal
[35] = test system: OVCAR-8 ovarian
[36] = test system: ACHN renal
[37] = test system: HT29 colon
[38] = test system: COLO 205 colon
[39] = test system: RPMI-8226 leukemia
[40] = test system: UO-31 renal
[41] = test system: CCRF-CEM leukemia
[42] = test system: SNB-19 CNS
[43] = test system: HOP-92 NSCLC
[44] = test system: OVCAR-3 ovarian
[45] = test system: CAKI-1 renal
[46] = test system: SF-295 CNS
[47] = test system: SNB-78 CNS
[48] = test system: KM20L2 colon
[49] = test system: IGROV1 ovarian
[50] = test system: MOLT-4 leukemia
[51] = test system: HL-60(TB) leukemia
[52] = test system: U251 CNS
[53] = test system: LXFL 529 NSCLC
[54] = test system: SR leukemia
[55] = test system: TK-10 renal
[56] = test system: EKVX NSCLC
[57] = test system: DU-145 prostate
[58] = test system: MCF7 breast
[59] = test system: T-47D breast
[60] = test system: HS 578T breast
[61] = test system: MDA-MB-435
[62] = test system: RXF 393 renal
[63] = test system: MDA-MB-231 breast
[64] = test system: LOX IMVI melanoma
[65] = test system: BT-549 breast
[66] = test system: HCC-2998 colon
[67] = test system: MDA-N
[68] = test system: NCI/ADR-RES ovarian
[69] = test system: PC-3 prostate

With `CCOC(=O)C(=O)Nc1c(C)cccc1C(C)C` the TGI [1] was > 100 µM, the TGI [2] was > 100 µM and the TGI [3] was > 100 µM. For the same compound, the TGI [4] was > 100 µM, the TGI [5] was > 100 µM and the TGI [6] was > 100 µM. For the same compound, the TGI [7] was > 100 µM, the TGI [8] was > 100 µM and the TGI [9] was > 100 µM. The TGI [10] was > 100 µM, the TGI [11] was > 100 µM and the TGI [12] was > 100 µM. The TGI [13] was > 100 µM, the TGI [14] was > 100 µM and the TGI [15] was > 100 µM. The TGI [16] was > 100 µM, the TGI [17] was > 100 µM and the TGI [18] was > 100 µM. For the same compound, the TGI [19] was > 100 µM, the TGI [20] was > 100 µM and the TGI [21] was > 100 µM. For the same compound, the TGI [22] was > 100 µM, the TGI [23] was > 100 µM and the TGI [24] was > 100 µM. The TGI [25] was > 100 µM, the TGI [26] was > 100 µM and the TGI [27] was > 100 µM. For the same compound, the TGI [28] was > 100 µM, the TGI [29] was > 100 µM and the TGI [30] was > 100 µM. For the same compound, the TGI [31] was > 100 µM, the TGI [32] was > 100 µM and the TGI [33] was > 100 µM. For the same compound, the TGI [34] was > 100 µM, the TGI [35] was > 100 µM and the TGI [36] was > 100 µM. The TGI [37] was > 100 µM, the TGI [38] was > 100 µM and the TGI [39] was > 100 µM. The TGI [40] was > 100 µM, the TGI [41] was > 100 µM and the TGI [42] was > 100 µM. The TGI [43] was > 100 µM, the TGI [44] was > 100 µM and the TGI [45] was > 100 µM. For the same compound, the TGI [46] was > 100 µM, the TGI [47] was > 100 µM and the TGI [48] was > 100 µM. For the same compound, the TGI [49] was > 100 µM, the TGI [50] was > 100 µM and the TGI [51] was > 100 µM. For the same compound, the TGI [52] was > 100 µM, the TGI [53] was > 100 µM and the TGI [54] was > 100 µM. For the same compound, the TGI [55] was > 100 µM and the TGI [56] was > 100 µM.
For `Cc1ccc2ccc3ccc(C)nc3c2n1`, the TGI [1] was > 100 µM, the TGI [57] was > 100 µM and the TGI [2] was > 100 µM. The TGI [3] was > 100 µM, the TGI [58] was 0.93 µM and the TGI [4] was > 100 µM. The TGI [59] was > 100 µM, the TGI [5] was > 100 µM and the TGI [6] was > 100 µM. For the same compound, the TGI [7] was > 100 µM, the TGI [8] was > 100 µM and the TGI [10] was > 100 µM. For the same compound, the TGI [11] was > 100 µM, the TGI [12] was > 100 µM and the TGI [13] was > 100 µM. The TGI [14] was > 100 µM, the TGI [15] was > 100 µM and the TGI [16] was > 100 µM. The TGI [60] was > 100 µM, the TGI [61] was > 100 µM and the TGI [62] was > 100 µM. The TGI [17] was > 100 µM, the TGI [18] was > 44.7 µM and the TGI [19] was > 100 µM. The TGI [20] was > 100 µM, the TGI [21] was > 100 µM and the TGI [22] was > 100 µM. The TGI [23] was > 100 µM, the TGI [63] was > 100 µM and the TGI [24] was > 100 µM. For the same compound, the TGI [25] was > 100 µM, the TGI [26] was > 100 µM and the TGI [27] was 1.34 µM. For the same compound, the TGI [28] was > 100 µM, the TGI [29] was > 100 µM and the TGI [30] was > 100 µM. The TGI [64] was > 100 µM, the TGI [31] was > 100 µM and the TGI [32] was > 100 µM. For the same compound, the TGI [65] was > 100 µM, the TGI [33] was > 100 µM and the TGI [35] was > 100 µM. For the same compound, the TGI [36] was > 100 µM, the TGI [66] was > 100 µM and the TGI [37] was > 100 µM. For the same compound, the TGI [38] was > 100 µM, the TGI [39] was > 100 µM and the TGI [40] was > 100 µM. For the same compound, the TGI [41] was > 100 µM, the TGI [67] was > 100 µM and the TGI [42] was > 100 µM. For the same compound, the TGI [43] was > 100 µM, the TGI [44] was > 100 µM and the TGI [45] was > 100 µM. For the same compound, the TGI [46] was > 100 µM, the TGI [47] was > 100 µM and the TGI [68] was > 100 µM. For the same compound, the TGI [48] was > 100 µM, the TGI [69] was > 100 µM and the TGI [49] was > 100 µM. For the same compound, the TGI [50] was > 100 µM, the TGI [51] was > 100 µM and the TGI [52] was > 100 µM. For the same compound, the TGI [53] was > 100 µM, the TGI [54] was > 100 µM and the TGI [55] was > 100 µM. The TGI [56] was > 100 µM.
For `CNC(=O)NC(CCCCNC(=O)OCc1ccccc1)C(=O)OCc1ccccc1` (stereo not given), the TGI [1] was > 100 µM, the TGI [57] was > 100 µM and the TGI [2] was 33.1 µM. The TGI [3] was > 100 µM, the TGI [58] was > 100 µM and the TGI [4] was > 100 µM. For the same compound, the TGI [59] was 51.3 µM, the TGI [5] was 41.5 µM and the TGI [6] was > 100 µM. The TGI [7] was 38.4 µM, the TGI [8] was 89.4 µM and the TGI [9] was 31.8 µM. The TGI [10] was 40.7 µM, the TGI [11] was > 100 µM and the TGI [12] was > 88.6 µM. For the same compound, the TGI [14] was > 100 µM, the TGI [15] was > 100 µM and the TGI [16] was > 100 µM. The TGI [60] was > 100 µM, the TGI [61] was 39.5 µM and the TGI [62] was 53.6 µM. For the same compound, the TGI [17] was 64.9 µM, the TGI [18] was > 100 µM and the TGI [19] was 43.9 µM. For the same compound, the TGI [20] was 71.4 µM, the TGI [21] was 43 µM and the TGI [22] was > 100 µM. The TGI [23] was 21.4 µM, the TGI [63] was > 73.9 µM and the TGI [24] was > 84.6 µM. The TGI [25] was 36.8 µM, the TGI [26] was 31.5 µM and the TGI [27] was 85.4 µM. For the same compound, the TGI [28] was 98.2 µM, the TGI [29] was 49.9 µM and the TGI [30] was > 100 µM. The TGI [64] was > 78.2 µM, the TGI [31] was > 100 µM and the TGI [32] was > 100 µM. The TGI [65] was > 100 µM, the TGI [33] was > 100 µM and the TGI [35] was > 87.5 µM. For the same compound, the TGI [36] was > 100 µM, the TGI [66] was > 72.9 µM and the TGI [37] was > 100 µM. The TGI [38] was 34.2 µM, the TGI [39] was 67.4 µM and the TGI [40] was 98.3 µM. The TGI [41] was 71.8 µM, the TGI [67] was 44 µM and the TGI [42] was > 100 µM. The TGI [43] was 45.3 µM, the TGI [44] was 57.9 µM and the TGI [45] was > 80.2 µM. The TGI [46] was > 100 µM, the TGI [47] was > 91.7 µM and the TGI [68] was > 100 µM. The TGI [48] was > 100 µM, the TGI [69] was > 100 µM and the TGI [49] was > 100 µM. For the same compound, the TGI [50] was 58.7 µM, the TGI [51] was 65.6 µM and the TGI [52] was > 97.1 µM. The TGI [53] was > 100 µM, the TGI [54] was 99.5 µM and the TGI [55] was 99 µM. The TGI [56] was > 100 µM.
